Test results as given in paper PMC2737144, “Characterization of an Enantioselective Odorant Receptor in the Yellow Fever Mosquito Aedes aegypti” (PLoS ONE, 2009).
pEC50: −log10 of the molar value.

Biological target: T1, AaOR8/AaOR7 protein complex (Aedes aegypti, UniProt Q16MN0)
T1 sequence (Q16MN0 32-422): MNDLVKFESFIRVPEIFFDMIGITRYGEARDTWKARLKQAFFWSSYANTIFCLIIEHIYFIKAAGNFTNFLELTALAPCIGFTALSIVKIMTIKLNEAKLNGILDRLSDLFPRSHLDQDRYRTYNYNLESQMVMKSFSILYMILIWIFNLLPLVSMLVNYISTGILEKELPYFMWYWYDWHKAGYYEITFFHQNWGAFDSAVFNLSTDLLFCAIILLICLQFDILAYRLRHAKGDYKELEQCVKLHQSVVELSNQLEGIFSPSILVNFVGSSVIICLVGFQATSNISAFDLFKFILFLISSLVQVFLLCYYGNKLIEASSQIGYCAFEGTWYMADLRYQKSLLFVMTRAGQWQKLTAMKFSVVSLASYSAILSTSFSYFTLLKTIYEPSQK
T1 sequence (Q178U6 1-478 partner): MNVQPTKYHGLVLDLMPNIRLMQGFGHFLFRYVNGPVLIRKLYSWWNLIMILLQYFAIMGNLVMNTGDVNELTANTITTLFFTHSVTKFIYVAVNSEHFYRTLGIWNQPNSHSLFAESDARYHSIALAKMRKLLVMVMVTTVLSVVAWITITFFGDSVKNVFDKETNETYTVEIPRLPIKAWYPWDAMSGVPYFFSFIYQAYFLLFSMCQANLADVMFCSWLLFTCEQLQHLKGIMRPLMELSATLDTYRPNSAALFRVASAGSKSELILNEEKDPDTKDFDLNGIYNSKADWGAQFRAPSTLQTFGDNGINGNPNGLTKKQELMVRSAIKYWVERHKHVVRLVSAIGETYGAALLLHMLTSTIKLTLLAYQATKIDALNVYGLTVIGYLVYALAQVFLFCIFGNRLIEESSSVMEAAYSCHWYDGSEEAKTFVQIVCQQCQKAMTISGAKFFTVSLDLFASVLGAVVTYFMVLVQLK
Assay: Two-microelectrode voltage clamp of Xenopus oocytes co-expressing AaOr8 and AaOr7; odorant-induced whole-cell currents
Type: cell-based
Settings: Xenopus oocytes co-expressing AaOR8 and AaOR7, holding potential −80 mV, 8 sec odorant exposure, non-linear regression curve fit; read-out: EC50 (half maximal effective concentration) of AaOR8
Experimental: Along with AaOr8, we co-expressed AaOr7 in Xenopus oocytes and electrophysiological responses (Fig. 1B) to each enantiomer were measured using the two-microelectrode voltage clamp technique. […] We established the concentration-response relationships for each compound (Fig. 1C) and their associated half maximal effective concentration (EC50) as a sensitivity criterion. […] Part of the response to the (S)-(+)-enantiomer may have been caused by the presence of trace amounts (1 part per thousand) of the (R)-(—)-enantiomer (see Material & Methods).
AaOr7 and AaOr8 cRNAs were synthesized from linearized pSP64DV expression vectors (Dr. Zwiebel, Vanderbilt University) using the mMESSAGE mMACHINE SP6 kit (Ambion). Following mechanical disruption of the Xenopus ovaries, stage […] oocytes were treated for 30 min at room temperature under 150 rpm shaking with a 2 mg/mL collagenase (SIGMA, C6895) solution in OR-2 buffer (5 mM HEPES, 1 mM Na2HPO4, 82.5 mM NaCl, and 2.5 mM MgCl2 [pH 7.6]). All procedures were performed in accordance with the NIH Institutional Animal Care and Use Committee and NIH guidelines. Oocytes were subsequently washed 5 times with OR-2 buffer, 5 times with MBSH buffer (10 mM HEPES, 2.4 mM NaHCO3, […], 1 mM KCl, 0.82 mM MgSO4, 0.41 mM CaCl2 and 0.33 mM (CaNO3)2, [pH 7.6]), 5 times with MBSH supplemented with 50 µg/ML gentamycin and 5 times with Ringer's buffer (96 mM NaCl, 2 mM KCl, 5 mM MgCl2, 6H2O, 5 mM HEPES and 0.8 mM CaCl2 [pH 7.6]) supplemented with 5% heat-inactivated horse serum, 50 µg/mL tetracycline, 100 µg/mL streptomycin and 550 µg/mL sodium pyruvate. Individual oocytes were allowed to recover overnight prior to injection with 10 ng of each cRNA and were recorded 4 to 6 days post-injection.
Whole-cell currents were recorded using the two-microelectrode voltage clamp technique, [58]. Odorants were dissolved in dimethyl sulfoxide (DMSO) at a 1∶10 ratio so that stock solutions could be made. Prior to recording, stock solutions were diluted in Ringer's solution [pH 7.6] (96 mM NaCl, 2 mM KCl, 5 mM MgCl2, 5 mM HEPES and 0.8 mM CaCl2) to the indicated concentrations before being applied to Xenopus oocytes in a RC-3Z oocyte recording chamber (Warner Instruments). Oocytes were continuously perfused by either pure Ringer's solution or exposed for 8 sec to serial dilutions of odorants dissolved in Ringer's solution. Odorant-induced currents were recorded with an OC-725C oocyte clamp (Warner Instruments) at a holding potential of −80 mV. Between stimulations, oocytes were allowed to return to their membrane resting potential by washing out the odorants using pure Ringer's solution. Data acquisition and analysis were carried out with Digidata 1440A and pCLAMP10 software (Axon Instruments).
Statistical analyses (GraphPad Prism5 Software, Inc.) of the logEC50 means were performed using an ordinary one-way ANOVA in conjunction with the Tukey Kramer multiple comparison post test (95% confidence interval). […] In all figures, graphical results are shown as means and standard error of the mean for a minimum of six independent oocytes. EC50 values for individual compounds were extrapolated using the non-linear regression curve fit function provided in Prism5.

Compound	pEC50
C=C[C@H](O)CCCCC [(R)-(—)-1-octen-3-ol]	6.80
CCCCCC(O)CC (stereo not drawn) [3-Octanol]	5.23
C=CC(O)CCCCCC (stereo not drawn) [1-Nonen-3-ol]	5.29
C=CC(=O)CCCCC [1-Octen-3-one]	4.64
C=CC(O)CCCC (stereo not drawn) [1-Hepten-3-ol]	4.77
C=C[C@@H](O)CCCCC [(S)-(+)-1-octen-3-ol]	4.76
C=CCC(O)CCCC (stereo not drawn) [1-Octen-4-ol]	4.41

Test system: Apis mellifera OR11 (AmOR11)
Assay: not given
Settings: Xenopus oocytes; cited from earlier work

Compound	concentration range of AmOR11 response
CC(=O)CCCCCC=CC(=O)O [9-oxo-2-decenoic acid]	nanomolar range

Test system: Bombyx mori OR1 (BmOR1)
Assay: not given
Settings: oocyte expression system; cited from earlier work

Compound	concentration range of BmOR1 response
CCC/C=C\C=C\CCCCCCCCCO [bombykol]	micromolar range
